{
  "source": "patent US12209087B2",
  "about": "“AKT1 modulators” (Alterome Therapeutics, Inc., priority 2022, dated 2025)",
  "note": "pIC50: −log10 of the molar value.",
  "data": [
    {"target": "T1, full length AKT E17K (Homo sapiens, UniProt P31749, E17K)", "T1 construct": "host or cells: HEK-293 (ATCC CRL-1573)", "T1 sequence (P31749 whole entry E17K)": "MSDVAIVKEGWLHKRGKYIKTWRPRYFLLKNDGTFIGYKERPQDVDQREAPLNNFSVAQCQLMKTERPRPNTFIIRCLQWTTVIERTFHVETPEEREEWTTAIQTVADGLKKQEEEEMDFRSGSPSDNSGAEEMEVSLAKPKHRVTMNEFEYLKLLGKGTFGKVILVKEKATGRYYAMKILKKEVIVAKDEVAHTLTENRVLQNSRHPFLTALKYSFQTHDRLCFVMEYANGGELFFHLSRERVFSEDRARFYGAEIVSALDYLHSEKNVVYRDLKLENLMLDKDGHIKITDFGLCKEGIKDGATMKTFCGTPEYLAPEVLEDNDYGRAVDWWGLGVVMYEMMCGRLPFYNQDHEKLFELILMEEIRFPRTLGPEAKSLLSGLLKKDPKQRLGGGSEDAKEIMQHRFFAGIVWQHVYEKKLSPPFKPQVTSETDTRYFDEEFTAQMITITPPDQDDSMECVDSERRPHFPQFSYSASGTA", "experiment": "NanoBRET Target Engagement (TE) Assay", "format": "cell-based", "conditions": "competitive displacement of tracer in cells, read-out: AKT1 E17K IC50", "summary_of_the_method": "(§1)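 Compound and tracer incubated 2 h before luminescence at donor 450 nm and acceptor 600 nm, with extracellular signal inhibited. EC50 by sigmoidal variable-slope regression.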", "values": [
      {"compound": "N#Cc1nccc(NC2CCN(Cc3ccc(-n4c(-c5nccnc5N)nc5ccc(-c6cn(CF)nn6)nc54)cc3)CC2)n1", "note": "[Example 628, 4-((1-(4-(2-(3-Aminopyrazin-2-yl)-5-(1-(fluoromethyl)-1H-1,2,3-triazol-4-yl)-3H-imidazo[4,5-b]pyridin-3-yl)benzyl)piperidin-4-yl)amino)pyrimidine-2-carbonitrile]", "pIC50": "> 7.82"},
      {"compound": "N#Cc1cc(N2CCN(Cc3ccc(-n4c(-c5cccnc5N)nc5ccc(-c6ccc(Cl)cc6)nc54)cc3)CC2)ncn1", "note": "[Example 344, 6-(4-(4-(2-(2-Aminopyridin-3-yl)-5-(4-chlorophenyl)-3H-imidazo[4,5-b]pyridin-3-yl)benzyl)piperazin-1-yl)pyrimidine-4-carbonitrile]", "pIC50": "6.22 to 7.22"},
      {"compound": "Cn1ccc(-c2ccc3nc(-c4cccnc4N)n(-c4ccc(CN5CCC(Nc6ccnc(C#N)n6)CC5)cc4)c3n2)cc1=O", "note": "[Example 359, 4-((1-(4-(2-(2-aminopyridin-3-yl)-5-(1-methyl-2-oxo-1,2-dihydropyridin-4-yl)-3H-imidazo[4,5-b]pyridin-3-yl)benzyl)piperidin-4-yl)amino)pyrimidine-2-carbonitrile]", "pIC50": "> 7.82"},
      {"compound": "N#Cc1nccc(NC2CCN(Cc3ccc(-n4c(-c5cccnc5N)nc5ccc(-c6cocn6)nc54)cc3)CC2)n1", "note": "[Example 594, 4-((1-(4-(2-(2-Aminopyridin-3-yl)-5-(oxazol-4-yl)-3H-imidazo[4,5-b]pyridin-3-yl)benzyl)piperidin-4-yl)amino)pyrimidine-2-carbonitrile]", "pIC50": "> 7.82"},
      {"compound": "N#Cc1nccc(NC2CCN(Cc3ccc(-n4c(-c5cccnc5N)nc5ccc(-c6ccc(F)cc6C(F)(F)F)nc54)cc3)CC2)n1", "note": "[Example 526, 4-((1-(4-(2-(2-Aminopyridin-3-yl)-5-(4-fluoro-2-(trifluoromethyl)phenyl)-3H-imidazo[4,5-b]pyridin-3-yl)benzyl)piperidin-4-yl)amino)pyrimidine-2-carbonitrile]", "pIC50": "5.00 to 6.22"},
      {"compound": "N#Cc1nccc(NC2CCN(Cc3ccc(-n4c(-c5cccnc5N)nc5ccc(-c6ncccc6C#N)nc54)cc3)CC2)n1", "note": "[Example 408, 4-((1-(4-(2-(2-Aminopyridin-3-yl)-5-(3-cyanopyridin-2-yl)-3H-imidazo[4,5-b]pyridin-3-yl)benzyl)piperidin-4-yl)amino)pyrimidine-2-carbonitrile]", "pIC50": "> 7.82"},
      {"compound": "N#Cc1ccnc(N2CCN(Cc3ccc(-n4c(-c5cccnc5N)nc5ccc(-c6cccc(=O)[nH]6)nc54)cc3)CC2)n1", "note": "[Example 333, 2-(4-(4-(2-(2-Aminopyridin-3-yl)-5-(6-oxo-1,6-dihydropyridin-2-yl)-3H-imidazo[4,5-b]pyridin-3-yl)benzyl)piperazin-1-yl)pyrimidine-4-carbonitrile]", "pIC50": "7.22 to 7.82"},
      {"compound": "[2H]C([2H])([2H])Oc1ccc(-c2ccc3nc(-c4cccnc4N)n(-c4ccc(CN5CCC(Nc6ccnc(C#N)n6)CC5)cc4)c3n2)cn1", "note": "[Example 598, 4-((1-(4-(2-(2-aminopyridin-3-yl)-5-(6-(methoxy-d3)pyridin-3-yl)-3H-imidazo[4,5-b]pyridin-3-yl)benzyl)piperidin-4-yl)amino)pyrimidine-2-carbonitrile]", "pIC50": "> 7.82"},
      {"compound": "Cn1cc(-c2ccc3nc(-c4cccnc4N)n(-c4ccc(CN5CCN(c6nccc(C#N)n6)CC5)cc4)c3n2)ccc1=O", "note": "[Example 354, 2-(4-(4-(2-(2-Aminopyridin-3-yl)-5-(1-methyl-6-oxo-1,6-dihydropyridin-3-yl)-3H-imidazo[4,5-b]pyridin-3-yl)benzyl)piperazin-1-yl)pyrimidine-4-carbonitrile]", "pIC50": "6.22 to 7.22"},
      {"compound": "[2H]C([2H])(c1ccc(-n2c(-c3cccnc3N)nc3ccc(Br)nc32)cc1)N1CCC(Nc2ccnc(C#N)n2)CC1", "note": "[Example 486, 4-((1-((4-(2-(2-Aminopyridin-3-yl)-5-bromo-3H-imidazo[4,5-b]pyridin-3-yl)phenyl)methyl-d2)piperidin-4-yl)amino)pyrimidine-2-carbonitrile]", "pIC50": "> 7.82"},
      {"compound": "COc1ccc(-c2ccc3nc(-c4cccnc4N)n(-c4ccc(CN5CCC(Nc6ccnc(C#N)n6)CC5)cc4)c3n2)nc1", "note": "[Example 552, 4-((1-(4-(2-(2-Aminopyridin-3-yl)-5-(5-methoxypyridin-2-yl)-3H-imidazo[4,5-b]pyridin-3-yl)benzyl)piperidin-4-yl)amino)pyrimidine-2-carbonitrile]", "pIC50": "> 7.82"},
      {"compound": "N#Cc1nccc(NC2CCN(Cc3ccc(-n4c(-c5cccnc5N)nc5ccc(-c6ccnc(F)c6)nc54)cc3)CC2)n1", "note": "[Example 561, 4-((1-(4-(2-(2-Aminopyridin-3-yl)-5-(2-fluoropyridin-4-yl)-3H-imidazo[4,5-b]pyridin-3-yl)benzyl)piperidin-4-yl)amino)pyrimidine-2-carbonitrile]", "pIC50": "> 7.82"},
      {"compound": "CC(C)C(=O)Nc1cccc(-c2ccc3nc(-c4cccnc4NC(=O)C(C)C)n(-c4ccc(CN5CCC(Nc6ccnc(C#N)n6)CC5)cc4)c3n2)c1", "note": "[Example 519, N-(3-(3-(4-((4-((2-cyanopyrimidin-4-yl)amino)piperidin-1-yl)methyl)phenyl)-2-(2-isobutyramidopyridin-3-yl)-3H-imidazo[4,5-b]pyridin-5-yl)phenyl)isobutyramide]", "pIC50": "7.22 to 7.82"},
      {"compound": "Cc1nn(C)cc1-c1ccc2nc(-c3cccnc3N)n(-c3ccc(CN4CCC(Nc5ccnc(C#N)n5)CC4)cc3)c2n1", "note": "[Example 539, 4-((1-(4-(2-(2-Aminopyridin-3-yl)-5-(1,3-dimethyl-1H-pyrazol-4-yl)-3H-imidazo[4,5-b]pyridin-3-yl)benzyl)piperidin-4-yl)amino)pyrimidine-2-carbonitrile]", "pIC50": "> 7.82"},
      {"compound": "N#Cc1nccc(NC2CCN(Cc3ccc(-n4c(-c5cccnc5N)nc5ccc(N6CCOCC6=O)nc54)cc3)CC2)n1", "note": "[Example 387, 4-((1-(4-(2-(2-Aminopyridin-3-yl)-5-(3-oxomorpholino)-3H-imidazo[4,5-b]pyridin-3-yl)benzyl)piperidin-4-yl)amino)pyrimidine-2-carbonitrile]", "pIC50": "6.22 to 7.22"},
      {"compound": "Cn1cncc1-c1ccc2nc(-c3cccnc3N)n(-c3ccc(CN4CCC(Nc5ccnc(C#N)n5)CC4)cc3)c2n1", "note": "[Example 546, 4-((1-(4-(2-(2-Aminopyridin-3-yl)-5-(1-methyl-1H-imidazol-5-yl)-3H-imidazo[4,5-b]pyridin-3-yl)benzyl)piperidin-4-yl)amino)pyrimidine-2-carbonitrile]", "pIC50": "> 7.82"},
      {"compound": "COc1cccnc1-c1ccc2nc(-c3cccnc3N)n(-c3ccc(CN4CCC(Nc5ccnc(C#N)n5)CC4)cc3)c2n1", "note": "[Example 563, 4-((1-(4-(2-(2-Aminopyridin-3-yl)-5-(3-methoxypyridin-2-yl)-3H-imidazo[4,5-b]pyridin-3-yl)benzyl)piperidin-4-yl)amino)pyrimidine-2-carbonitrile]", "pIC50": "> 7.82"}
    ]},
    {"target": "T1, full length AKT E17K", "experiment": "NanoBRET Target Engagement (TE) Assay", "format": "cell-based", "conditions": "competitive tracer displacement in living cells, read-out: AKT1 E17K IC50", "summary_of_the_method": "as §1", "values": [
      {"compound": "N#Cc1cc(NC2CCN(Cc3ccc(-n4c(-c5cccnc5N)nc5ccc(-c6cccc(F)c6)nc54)cc3)CC2)ncn1", "note": "[Example 311, 6-((1-(4-(2-(2-Aminopyridin-3-yl)-5-(3-fluorophenyl)-3H-imidazo[4,5-b]pyridin-3-yl)benzyl)piperidin-4-yl)amino)pyrimidine-4-carbonitrile]", "pIC50": "> 7.82"},
      {"compound": "N#Cc1nccc(N2CCN(Cc3ccc(-n4c(-c5cccnc5N)nc5ccc(N6CCCNC(=O)C6)nc54)cc3)CC2)n1", "note": "[Example 317, 4-(4-(4-(2-(2-Aminopyridin-3-yl)-5-(3-oxo-1,4-diazepan-1-yl)-3H-imidazo[4,5-b]pyridin-3-yl)benzyl)piperazin-1-yl)pyrimidine-2-carbonitrile]", "pIC50": "6.22 to 7.22"},
      {"compound": "N#Cc1ccc(C(=O)NC2CCN(Cc3ccc(-n4c(-c5cccnc5N)nc5cccnc54)cc3)CC2)nc1", "note": "[Example 25, N-(1-(4-(2-(2-Aminopyridin-3-yl)-3H-imidazo[4,5-b]pyridin-3-yl)benzyl)piperidin-4-yl)-5-cyanopicolinamide]", "pIC50": "5.00 to 6.22"},
      {"compound": "N#Cc1nccc(NC2CCN(Cc3ccc(-n4c(-c5cccnc5N)nc5ccc(C6CCOCC6)nc54)cc3)CC2)n1", "note": "[Example 299, 4-((1-(4-(2-(2-Aminopyridin-3-yl)-5-(tetrahydro-2H-pyran-4-yl)-3H-imidazo[4,5-b]pyridin-3-yl)benzyl)piperidin-4-yl)amino)pyrimidine-2-carbonitrile]", "pIC50": "> 7.82"},
      {"compound": "N#Cc1ccnc(NC2CCN(Cc3ccc(-n4c(-c5cccnc5N)nc5ccc(-c6ccccc6)nc54)cc3)CC2)c1", "note": "[Example 87, 2-((1-(4-(2-(2-Aminopyridin-3-yl)-5-phenyl-3H-imidazo[4,5-b]pyridin-3-yl)benzyl)piperidin-4-yl)amino)isonicotinonitrile]", "pIC50": "6.22 to 7.22"},
      {"compound": "N#Cc1nc2cc(F)cc(C(=O)N3CCN(Cc4ccc(-n5c(-c6cccnc6N)nc6ccc(-c7ccccc7)nc65)cc4)CC3)c2s1", "note": "[Example 180, 7-(4-(4-(2-(2-Aminopyridin-3-yl)-5-phenyl-3H-imidazo[4,5-b]pyridin-3-yl)benzyl)piperazine-1-carbonyl)-5-fluorobenzo[d]thiazole-2-carbonitrile]", "pIC50": "7.22 to 7.82"},
      {"compound": "N#Cc1cc(N2CCN(Cc3ccc(-n4c(-c5cccnc5N)nc5ccc(-c6ccccc6)nc54)cc3)CC2)cnn1", "note": "[Example 159, 5-(4-(4-(2-(2-Aminopyridin-3-yl)-5-phenyl-3H-imidazo[4,5-b]pyridin-3-yl)benzyl)piperazin-1-yl)pyridazine-3-carbonitrile]", "pIC50": "7.22 to 7.82"},
      {"compound": "N#Cc1ccnc(C(=O)NCc2ccc(-n3c(-c4cccnc4N)nc4cccnc43)cc2)c1", "note": "[Example 147, N-(4-(2-(2-Aminopyridin-3-yl)-3H-imidazo[4,5-b]pyridin-3-yl)benzyl)-4-cyanopicolinamide]", "pIC50": "5.00 to 6.22"},
      {"compound": "N#Cc1ccnc(N2CCN(Cc3ccc(-n4c(-c5cccnc5N)nc5ccc(-c6ccccc6)nc54)cc3)CC23CC3)n1", "note": "[Example 199, 2-(7-(4-(2-(2-Aminopyridin-3-yl)-5-phenyl-3H-imidazo[4,5-b]pyridin-3-yl)benzyl)-4,7-diazaspiro[2.5]octan-4-yl)pyrimidine-4-carbonitrile]", "pIC50": "6.22 to 7.22"},
      {"compound": "N#Cc1cc(C(=O)NC2CCN(Cc3ccc(-n4c(-c5cccnc5N)nc5cc(-c6ccccc6)cnc54)cc3)CC2)ccn1", "note": "[Example 107, N-(1-(4-(2-(2-Aminopyridin-3-yl)-6-phenyl-3H-imidazo[4,5-b]pyridin-3-yl)benzyl)piperidin-4-yl)-2-cyanoisonicotinamide]", "pIC50": "5.00 to 6.22"}
    ]}
  ]
}
